Laboratory results from PMC5904165, “Insight into the cold adaptation and hemicellulose utilization of Cladosporium neopsychrotolerans from genome analysis and biochemical characterization” (Scientific Reports, 2018).

What was measured:
Xyl43A [1] = tested on: T1, Xyl43A; experiment: p-nitrophenol release, Michaelis-Menten fit; type: biochemical, Cladosporium neopsychrotolerans; conditions: 35 °C (optimum), optimal pH; 1-10 mM pNPX used, so the table's unit mg/mL may be doubtful
T1 construct: intracellular enzyme
Text: p-nitrophenol release, Michaelis-Menten fit on Xyl43A

Xyl43A [2] = molecular target: T1, Xyl43A; experiment: inhibition of pNPX hydrolysis, Dixon plot; type: biochemical, Cladosporium neopsychrotolerans; conditions: pNPX substrate, McIlvaine buffer pH 6.8, room temperature, 10 min; mode not stated

SMILES	Xyl43A / 35 °C (Topt) (Xyl43A [1]) [mg/mL]	Ki (Xyl43A [2]) [mM]
O=[N+]([O-])c1ccc(O[C@@H]2OC[C@@H](O)[C@H](O)[C@H]2O)cc1 [pNPX]	2.73 ± 0.37	
OC1OC[C@@H](O)[C@H](O)[C@H]1O (stereo partly drawn) [D-xylose]		43.3
